Measured values reported in US10624965B2, “Immunotherapy treatments and compositions” (SUSAVION BIOSCIENCES, INC., priority 2014, dated 2020).
Positions of bridges follow the written chain, without caps; N, C: chain ends. Chains are numbered I, II in the order given. No end group written: not given here.

Legend:
[1] = tested on: serum cytokines and chemokines; settings: mouse, in vivo
Protocol: To determine whether the responses in serum proteins would be different in tumor-bearing mice from those in healthy mice, sera were collected from female mice in which breast cancer 4T1 cells had been implanted. After the tumors had grown over a period of 10 to 12 days to a size of ˜500 mm^3, tetravalent svL4 was injected subcutaneously at doses of 0.1 and 1.0 nmol/g. Blood was withdrawn and sera prepared 4 hours after injection. The sera of untreated animals had low levels of cytokines and chemokines at 4 h. With a few proteins, such as IL-1β, IL-2, IL-6 and TNFα, the values were very low in untreated animals and upon treatment with svL4 were increased but still nearly undetectable on the array blots. […] Several cytokines that increased but were still low in amount included GM-CSF, CCL4, IGFBP-1, IL-21, lymphotoxin-α, and IL-17. Major proteins included CCL1, CCL8, CCL28, Endostatin, Fas, HVEM, IL-11, IL-12p70, IL-16, IL-27, IL-28, MIP-2, MMP-9, NOV, Soggy-1, SPARC, TIMP-2, TLR2 and VEGF-B. In some cases, the higher dose caused a higher amount of the protein, whereas with several proteins the amount was lower with the higher dose. […] A number of soluble proteins were identified as cell-surface receptors, such as Fas, HVEM and TLR2, which indicated significant shedding by activated cells. […]

[2] = in vivo
Text: (§1) It is important to note that during and after drug administration there was no change in mouse weight or behavior, indicating no overt toxicity related to treatment.

[3] = set-up: species or system mice
Text: as §1

I: VQATQSNQHTPRGGGSKK-NH2 / II: VQATQSNQHTPRGGGSK / III: VQATQSNQHTPRGGGS / IV: VQATQSNQHTPRGGGS (amide I:17-IV:C, I:18-II:C, II:17-III:C) [svL4, [(VQATQSNQHTPRGGGS)2K]2K—NH2]
pattern typical of a toxic "cytokine storm" [1]: did not occur | change in mouse weight or behavior (overt toxicity) [2]: no change | irritation or formation of fibrous or granulomatous tissue at injection region ([2]; mouse): no apparent irritation | binding of peptides to sera (antigenicity) [3]: negative
